Data taken from PubChem BioAssay AID2060624 (Molecular Pharmacology Branch, DTP, NCI, 2025).

Tested on: 217524-143-R1-J4-PDC spheroids with HUVEC/MSC, viability
Assay: Anticancer human tumor 217524-143-R1-J4-PDC patient-derived pancreatic carcinoma cell line growth inhibition [CLK]
Conditions: for IC50: curve of first compound; for viability, T/C: stronger effect = lower value
Text: A high-throughput screen of multi-cell type tumor spheroids was designed to identify active combinations of […] and targeted small molecules. Complex spheroids include a stromal component modeled by human endothelial cells (HUVEC) and fibroblasts modeled by human mesenchymal stem cells (MSCs). The concentration ranges selected for each drug and investigational agent were based upon clinically achievable concentrations if the clinical Cmax of the agent was known.
Compounds. The drugs and investigational agents: cirtuvivint (SM08502; NSC835563), CC-671 (NSC850746), vemurafenib (NSC761431), tapotoclax (NSC804041), sotorasib (NSC818433), adagrasib (NSC831453), MRTX-1133 (NSC836407), BAY2416964 (NSC825713), copanlisib (NSC816437), inavolisib (NSC800729), abemaciclib (NSC768073), osimertinib (NSC779217), entinostat (NSC756642), eltanexor (KPT-8602, NSC794443), venetoclax (NSC766270), ceralasertib (NSC777638), bortezomib (NSC756655), olaparib (NSC753686), talazoparib (NSC767125), alisertib (NSC759677), peposertib (NSC802822), gemcitabine (NSC613327), 5-fluorouracil (NSC19893), SN-38 (NSC673596), oxaliplatin (NSC266046), paclitaxel (NSC125973), and doxorubicin (NSC123127), were obtained from the National Cancer Institute (NCI) Developmental Therapeutics Program Chemical Repository. The FDA-approved anticancer drug set is available from the Developmental Therapeutics Program at https://dtp.cancer.gov/organization/dscb/obtaining/available plates.htm. […] The stock solutions were prepared in dimethyl sulfoxide (DMSO, Sigma-Aldrich, St. Louis, MO, cat. D2650), except for the platinum complexes which were prepared in saline (Quality Biological, Gaithersburg, MD, cat. 114-055-101), at 800-fold the tested concentration and stored at -70 degrees C prior to their use. All drugs and investigational agents were tested over a range starting from a high concentration at or near the clinical Cmax and decreasing in half-log increments. If the clinical Cmax for an agent had not been determined, the highest concentration tested was 10 microM.
Cell Culture. All cells were maintained in an incubator at 37 degrees C and 5% CO2 with 95% humidity. The PDC lines were cultured according to standard operating procedures established by the NCI PDMR. Briefly, all PDCs were thawed and cultured in Matrigel-coated flasks prepared with a working solution of 1X Ham's F-12 nutrient mix, without supplementation (Invitrogen, Waltham, MA, cat. 11765054), 100 U/mL penicillin-streptomycin (Invitrogen, cat. 15140122), and 2.5% Matrigel (Corning Inc., Corning, NY, cat. 354248) for the first three passages. The 947758-054-R-J2-PDC line was cultured in 6B/Colon 1A media, which includes advanced DMEM/F-12 (Thermo Fisher Scientific, cat. 12634028), 10 mM HEPES (Thermo Fisher Scientific, cat. 15630080), 1X GlutaMAX supplement (Thermo Fisher Scientific, cat. 35050061), 0.1 mg/mL primocin (InvivoGen, cat. ant-pm-2), 10% defined fetal bovine serum, heat inactivated (HyClone Laboratories Inc., cat. SH30070.03HI), 1.25 mM N-Acetyl-L-cysteine (Sigma-Aldrich, cat. A9165), 10 mM nicotinamide (Sigma-Aldrich, cat. N0636), 1X B-27 supplement (Thermo Fisher Scientific, cat. 17504044), 1X N-2 supplement (Thermo Fisher Scientific, cat. 17502048), and 10 microM Y-27632 dihydrochloride (Tocris Bioscience, cat. 1254). The 876862-298-R-J1-PDC was cultured in 6E media, which includes all 6B/Colon 1A media components plus 50% L-WRN conditioned media (ATCC, cat. CRL-3276), 50 ng/mL recombinant human EGF recombinant protein (hEGF; Thermo Fisher Scientific, cat. PHG0311), 10 ng/mL recombinant human fibroblast growth factor 10 (hGFG-10; PeproTech, cat. 100-26), 1 ng/mL recombinant human fibroblast growth factor 2 (hFGF-2; PeproTech, cat. 100-18B), and 1 µM prostaglandin E2 (PGE2; Tocris, cat. 2296). The 227483-062-R1-J1-PDC line was cultured in Panc media, containing all 6E components except hFGF-2, with the addition of 500 nM SB-431542 (Selleckchem, cat. S1067) and 10 nM gastrin (Tocris, cat. 3006). […]

[1] = second compound 0.0316 µM, first compound 0.0316 µM
[2] = second compound 0.0316 µM, first compound 0.1 µM
[3] = second compound 0.0316 µM, first compound 0.316 µM
[4] = second compound 0.0316 µM, first compound 1 µM
[5] = second compound 0.1 µM, first compound 0.0316 µM
[6] = second compound 0.1 µM, first compound 0.1 µM
[7] = second compound 0.1 µM, first compound 0.316 µM
[8] = second compound 0.1 µM, first compound 1 µM
[9] = second compound 0.316 µM, first compound 0.0316 µM
[10] = second compound 0.316 µM, first compound 0.1 µM
[11] = second compound 0.316 µM, first compound 0.316 µM
[12] = second compound 0.316 µM, first compound 1 µM
[13] = second compound 1 µM, first compound 0.0316 µM
[14] = second compound 1 µM, first compound 0.1 µM
[15] = second compound 1 µM, first compound 0.316 µM
[16] = second compound 1 µM, first compound 1 µM
[17] = second compound 3.16 µM, first compound 0.0316 µM
[18] = second compound 3.16 µM, first compound 0.1 µM
[19] = second compound 3.16 µM, first compound 0.316 µM
[20] = second compound 3.16 µM, first compound 1 µM
[21] = second compound 10 µM, first compound 0.0316 µM
[22] = second compound 10 µM, first compound 0.1 µM
[23] = second compound 10 µM, first compound 0.316 µM
[24] = second compound 10 µM, first compound 1 µM
[25] = second compound 0.0316 µM, first compound 0.00316 µM
[26] = second compound 0.0316 µM, first compound 0.01 µM
[27] = second compound 0.1 µM, first compound 0.00316 µM
[28] = second compound 0.1 µM, first compound 0.01 µM
[29] = second compound 0.316 µM, first compound 0.00316 µM
[30] = second compound 0.316 µM, first compound 0.01 µM
[31] = second compound 1 µM, first compound 0.00316 µM
[32] = second compound 1 µM, first compound 0.01 µM
[33] = second compound 3.16 µM, first compound 0.00316 µM
[34] = second compound 3.16 µM, first compound 0.01 µM
[35] = second compound 10 µM, first compound 0.00316 µM
[36] = second compound 10 µM, first compound 0.01 µM
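Further: spheroids exposed to agents for seven days before reading.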
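Wherever viability, T/C is given: 100% = DMSO vehicle control viability.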

## CC(Nc1ccc2c(c1)OCCn1cc(N3C(=O)OCC3C(F)F)nc1-2)C(N)=O (stereo unspecified) + CN1CCN(c2cc(C(=O)Nc3cc4cc(-c5cnn(C)c5)ccc4cn3)ccn2)CC1
Second compound 0.0316 µM
  IC50: 61.8 nM
Second compound 0.1 µM
  IC50: < 31.6 nM
Second compound 0.316 µM
  IC50: < 31.6 nM
Second compound 1 µM
  IC50: < 31.6 nM
Second compound 3.16 µM
  IC50: < 31.6 nM
Second compound 10 µM
  IC50: < 31.6 nM
[1]
  viability, T/C: 75.1%
[2]
  viability, T/C: 30.5%
[3]
  viability, T/C: 16.9%
[4]
  viability, T/C: 6.57%
Second compound 0.0316 µM, first compound 3.16 µM
  viability, T/C: 5.62%
Second compound 0.0316 µM, first compound 10 µM
  viability, T/C: 3.9%
[5]
  viability, T/C: 40.8%
[6]
  viability, T/C: 24.6%
[7]
  viability, T/C: 10.2%
[8]
  viability, T/C: 5.26%
Second compound 0.1 µM, first compound 3.16 µM
  viability, T/C: 4.73%
Second compound 0.1 µM, first compound 10 µM
  viability, T/C: 3.98%
[9]
  viability, T/C: 19.2%
[10]
  viability, T/C: 9.36%
[11]
  viability, T/C: 6.98%
[12]
  viability, T/C: 4.68%
Second compound 0.316 µM, first compound 3.16 µM
  viability, T/C: 3.77%
Second compound 0.316 µM, first compound 10 µM
  viability, T/C: 3.27%
[13]
  viability, T/C: 2.47%
[14]
  viability, T/C: 1.63%
[15]
  viability, T/C: 1.31%
[16]
  viability, T/C: 1.2%
Second compound 1 µM, first compound 3.16 µM
  viability, T/C: 1.03%
Second compound 1 µM, first compound 10 µM
  viability, T/C: 0.93%
[17]
  viability, T/C: 0.62%
[18]
  viability, T/C: 0.64%
[19]
  viability, T/C: 0.73%
[20]
  viability, T/C: 0.58%
Second compound 3.16 µM, first compound 3.16 µM
  viability, T/C: 0.75%
Second compound 3.16 µM, first compound 10 µM
  viability, T/C: 0.64%
[21]
  viability, T/C: 0.11%
[22]
  viability, T/C: 0.18%
[23]
  viability, T/C: 0.18%
[24]
  viability, T/C: 0.13%
Second compound 10 µM, first compound 3.16 µM
  viability, T/C: 0.27%
Second compound 10 µM, first compound 10 µM
  viability, T/C: 0.2%

## CCN1CCN(Cc2ccc(Nc3ncc(F)c(-c4cc(F)c5nc(C)n(C(C)C)c5c4)n3)nc2)CC1 + CN1CCN(c2cc(C(=O)Nc3cc4cc(-c5cnn(C)c5)ccc4cn3)ccn2)CC1
Second compound 0.0316 µM
  IC50: 224 nM
Second compound 0.1 µM
  IC50: 11 nM
Second compound 0.316 µM
  IC50: < 3.16 nM
Second compound 1 µM
  IC50: < 3.16 nM
Second compound 3.16 µM
  IC50: < 3.16 nM
Second compound 10 µM
  IC50: < 3.16 nM
[25]
  viability, T/C: 93.3%
[26]
  viability, T/C: 62.5%
[1]
  viability, T/C: 71.2%
[2]
  viability, T/C: 60%
[3]
  viability, T/C: 41%
[4]
  viability, T/C: 44.6%
[27]
  viability, T/C: 55.3%
[28]
  viability, T/C: 53.4%
[5]
  viability, T/C: 44.8%
[6]
  viability, T/C: 39%
[7]
  viability, T/C: 29.1%
[8]
  viability, T/C: 32.6%
[29]
  viability, T/C: 23.3%
[30]
  viability, T/C: 21.7%
[9]
  viability, T/C: 17.6%
[10]
  viability, T/C: 17.6%
[11]
  viability, T/C: 15.8%
[12]
  viability, T/C: 17.1%
[31]
  viability, T/C: 2.31%
[32]
  viability, T/C: 2.94%
[13]
  viability, T/C: 2.53%
[14]
  viability, T/C: 3.19%
[15]
  viability, T/C: 3.76%
[16]
  viability, T/C: 3.89%
[33]
  viability, T/C: 0.74%
[34]
  viability, T/C: 0.96%
[17]
  viability, T/C: 1.42%
[18]
  viability, T/C: 1.28%
[19]
  viability, T/C: 3%
[20]
  viability, T/C: 4.17%
[35]
  viability, T/C: 0.23%
[36]
  viability, T/C: 0.28%
[21]
  viability, T/C: 0.27%
[22]
  viability, T/C: 0.28%
[23]
  viability, T/C: 0.46%
[24]
  viability, T/C: 0.58%

## COc1c(OCCCN2CCOCC2)ccc2c3n(c(=NC(=O)c4cnc(N)nc4)nc12)CCN3 + CN1CCN(c2cc(C(=O)Nc3cc4cc(-c5cnn(C)c5)ccc4cn3)ccn2)CC1
Second compound 0.0316 µM
  IC50: 6.3 nM
Second compound 0.1 µM
  IC50: < 3.16 nM
Second compound 0.316 µM
  IC50: < 3.16 nM
Second compound 1 µM
  IC50: < 3.16 nM
Second compound 3.16 µM
  IC50: < 3.16 nM
Second compound 10 µM
  IC50: < 3.16 nM
[25]
  viability, T/C: 72.3%
[26]
  viability, T/C: 35.1%
[1]
  viability, T/C: 8.37%
[2]
  viability, T/C: 4.22%
[3]
  viability, T/C: 3.38%
[4]
  viability, T/C: 2.18%
[27]
  viability, T/C: 40.3%
[28]
  viability, T/C: 24.1%
[5]
  viability, T/C: 7.97%
[6]
  viability, T/C: 4.61%
[7]
  viability, T/C: 2.58%
[8]
  viability, T/C: 2.72%
[29]
  viability, T/C: 18.8%
[30]
  viability, T/C: 12.1%
[9]
  viability, T/C: 5.45%
[10]
  viability, T/C: 3.87%
[11]
  viability, T/C: 2.75%
[12]
  viability, T/C: 2.26%
[31]
  viability, T/C: 2.94%
[32]
  viability, T/C: 1.77%
[13]
  viability, T/C: 1.27%
[14]
  viability, T/C: 1.02%
[15]
  viability, T/C: 0.59%
[16]
  viability, T/C: 0.49%
[33]
  viability, T/C: 0.65%
[34]
  viability, T/C: 0.68%
[17]
  viability, T/C: 0.5%
[18]
  viability, T/C: 0.47%
[19]
  viability, T/C: 0.5%
[20]
  viability, T/C: 0.45%
[35]
  viability, T/C: 0.14%
[36]
  viability, T/C: 0.14%
[21]
  viability, T/C: 0.19%
[22]
  viability, T/C: 0.13%
[23]
  viability, T/C: 0.25%
[24]
  viability, T/C: 0.19%
